Assay results taken from BindingDB's records for doi:10.1021/np200603g (Yunnan University, 2011).

Target: T1, Programmed cell death protein 4 (Homo sapiens, UniProt Q53EL6)
T1 sequence (Q53EL6 whole entry): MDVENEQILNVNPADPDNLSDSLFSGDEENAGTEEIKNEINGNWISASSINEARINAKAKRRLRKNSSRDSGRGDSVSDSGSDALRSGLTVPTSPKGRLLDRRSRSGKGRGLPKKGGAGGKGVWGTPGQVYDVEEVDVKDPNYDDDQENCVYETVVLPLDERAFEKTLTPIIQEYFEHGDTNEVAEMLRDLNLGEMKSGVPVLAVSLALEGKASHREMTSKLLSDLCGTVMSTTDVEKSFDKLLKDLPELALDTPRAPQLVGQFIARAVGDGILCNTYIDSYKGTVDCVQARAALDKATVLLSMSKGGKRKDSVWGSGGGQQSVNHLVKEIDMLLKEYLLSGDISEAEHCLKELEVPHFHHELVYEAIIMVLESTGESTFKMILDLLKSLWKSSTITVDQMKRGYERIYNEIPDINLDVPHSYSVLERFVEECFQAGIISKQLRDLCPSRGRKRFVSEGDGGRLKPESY
Assay: Stabilization of Pdcd4 expressed in human HEK293 cells assessed as inhibition of TPA-induced degradation by luciferase reporter assay

Nc1ncnc2c1ccn2[C@@H]1O[C@H](CO)[C@@H](O)[C@H]1O ['2-(4-AMINO-PYRROLO[2,3-D]PYRIMIDIN-7-YL)-5-HYDROXYMETHYL-TETRAHYDRO-FURAN-3,4-DIOL]
IC50: 880 nM
